# Laboratory results reported in paper PMC10244622, “Concerted suppressive effects of carisbamate, an anti-epileptic alkyl-carbamate drug, on voltage-gated Na^+ and hyperpolarization-activated cation currents” (Frontiers in Cellular Neuroscience, 2023).
# Key:
# [1] = test system: T1, voltage-gated Na^+ (NaV) channels (INa in GH3 cells); assay: whole-cell patch clamp; format: cell-based; settings: transient (peak) INa(T); 30-ms step from -100 to -10 mV; Ca2+-free Tyrode, 10 mM TEA, 0.5 mM CdCl2; pH 7.4; 20-25 °C; native GH3 cells
# T1 construct: gene Scn1a; native whole-cell current in GH3 pituitary cells; hNaV1.7 only docked
# [2] = test system: T2, HCN channel (hyperpolarization-activated cation current, Ih, in GH3 cells); assay: whole-cell patch clamp; format: cell-based; settings: Ih at end of 2-s step from -40 to -110 mV; Ca2+-free Tyrode with 1 μM TTX; pH 7.4; 20-25 °C; native GH3 cells
# T2 construct: gene Hcn2; native whole-cell current in GH3 pituitary cells; homo- or mixed HCN2+HCN3; PDB 5V4S is only a docking model
smiles,measurement,setting,value
"NC(=O)OC[C@@H](O)c1ccccc1Cl [CRS, [(2S)-2-(2-chlorophenyl)-2-hydroxyethyl] carbamate]",IC50,[1],56.4 µM
same,IC50,[2],38 µM
